Here are results for five compounds from patent US5605929A, “Methods and compositions for inhibiting 5α-reductase activity” (priority 1995, dated 1997).

Where two headings read alike, the source gives them in different places.

Assay [1] has as its target T1, human 5α-reductase isozyme type 2 (Homo sapiens, UniProt P31213).
T1 construct: expressed in transfected cells; host or cells: Rat-1A cells infected with pMV7 retrovirus; microsomes of these cells
T1 sequence (P31213 1-254): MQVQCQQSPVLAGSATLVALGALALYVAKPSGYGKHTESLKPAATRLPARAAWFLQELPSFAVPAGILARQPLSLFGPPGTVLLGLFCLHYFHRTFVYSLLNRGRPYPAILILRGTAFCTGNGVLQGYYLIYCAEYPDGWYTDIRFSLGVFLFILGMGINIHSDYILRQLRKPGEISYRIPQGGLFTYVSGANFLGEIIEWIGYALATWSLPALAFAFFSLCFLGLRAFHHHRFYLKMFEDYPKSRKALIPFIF
The experiment in a line: 4-[14C]testosterone reduction, human type 2 isozyme. In kind it is biochemical. Particulars: for inhibition at 1 µM / inhibition at 3 µM / inhibition at 10 µM / inhibition at 30 µM / inhibition at 100 µM: read-out: % Inhibition of 5α-reduction; for activity on type 2 isozyme: enzymatic assay, concentrations below 30 μM for ECG/EGCG. An excerpt:
(§1) The cDNAs for the human type 1 and 2 5α-reductases were isolated from human prostate λZAP II™ cDNA libraries using the published sequence of the 5α-reductases, PCR™ and standard library screening techniques (Sambrook et al., 1989). The type 1 and 2 cDNAs correspond to nucleotides 31-870 and 28-829, respectively, of the published sequences for these 5α-reductases (Anderson and Russell, 1990; Anderson et al., 1991). The type 1 and 2 cDNAs were subcloned into the retroviral expression vector pMV7 (Kirschmeier et al., 1988) and high titer stocks of virus containing the type 1 and 2 cDNAs were generated using the packaging cells BOSC 23 293 (Kirschmeier et al., 1988). Rat.-1A cells (Pear et al., 1993) were infected with virus (Topp, 1981) and cells containing integrated retrovirus were selected for G418-SO4 resistance, (Brown and Scott, 1987).
(§2) Microsomes were prepared as described previously (Liang and Liao, 1992) from the liver of adult Sprague-Dawley female rats or Rat-1A cells expressing a specific type of human 5α-reductase. […] The data presented was based on the rate of reaction.
(§3) The reaction was started by the addition of 25 μl of microsomes (25 μg protein). The mixture was incubated at 37° for 30-60 min and stopped by addition of 0.5 ml of ethyl acetate and mixing for 1 min. The organic solvent extract was removed under vacuum.

Assay [2] deals with T1, human 5α-reductase isozyme type 2. Description: [3H]4-MA binding, human type 2 isozyme expressed in Rat-1A cells. Particulars: read-out: % Inhibition of [^3 H]4-MA binding.
Text: as §1, §2
(§4) [^3 H]4-MA binding assay were described in detail previously (Liang and Liao, 1992; Liang et al., 1983). […] The reaction was started by the addition of 25 μl of microsomes (25 μg protein). After 30-60 min incubation at 0° C., the [^3 H]4-MA bound to microsomes was collected on a Whatman GF/F glass fiber, washed and radioactivity determined (Liang and Liao, 1992).

Assay [3] relates to forehead sebum production. Description: Forehead sebum production (L/R ratio), human male. In kind it is in vivo. The protocol:
A volunteer was used to test and analyze sebum production from the forehead region. The forehead was washed thoroughly by soap twice and cleaned by 70% isopropyl alcohol twice. Sebum production was measured 30 to 60 minutes later by a sebum meter (Courage/Khazaka Electronic GmbH, Germany). The sebum meter tape probe (7 mm×8 mm) covered 56 mm^2 area in each measurement. Ten measurements were made within the 4 cm square area (16 cm^2) located at the middle of the left or right side forehead between the eyebrow and the hair line.
The sebum meter detected the difference in the transparency of the tape before and after the tape was placed on the forehead for 30 seconds and expressed the difference in an arbitrary number (S-value) between 0 to 300 (or higher). S-values of sebum accumulated on the foreheads of men are usually 200 to 300.

For assay [4], the system named is 5α-reductase. The experiment in a line: Catechin gallates in rat liver microsomes or cells expressing type 1 or type 2 5α-reductase. In kind it is biochemical. The note with it: 40 μM.
Assay [5] relates to ventral prostate and preputial organ. Particulars: 5 mg ip daily, 14 days. The text has this: Male Sprague-Dawley rats, 60±5 g body weight, were used. Each group had 6 rats, and all were castrated.
Assay [6] concerns the target T2, human 5α-reductase isozyme type 1 (Homo sapiens, UniProt P18405).
T2 construct: expressed in transfected cells; host or cells: Rat-1A cells infected with pMV7 retrovirus; microsomes of these cells
T2 sequence (P18405 1-259): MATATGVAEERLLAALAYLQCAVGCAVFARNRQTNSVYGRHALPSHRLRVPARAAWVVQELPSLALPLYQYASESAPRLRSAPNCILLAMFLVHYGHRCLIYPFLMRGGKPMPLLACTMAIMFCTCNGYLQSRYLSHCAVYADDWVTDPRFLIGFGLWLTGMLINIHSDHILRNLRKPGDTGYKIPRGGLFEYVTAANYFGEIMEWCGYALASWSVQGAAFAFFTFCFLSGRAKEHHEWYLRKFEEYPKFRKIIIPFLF
Description: [3H]4-MA binding, human type 1 isozyme expressed in Rat-1A cells. Particulars: read-out: % Inhibition of [^3 H]4-MA binding.
Text: as §1, §2, §4

The target of assay [7] is T3, 5α-Reductase of Rat Liver Microsomes (Rattus norvegicus, UniProt P24008).
T3 sequence (P24008 1-259): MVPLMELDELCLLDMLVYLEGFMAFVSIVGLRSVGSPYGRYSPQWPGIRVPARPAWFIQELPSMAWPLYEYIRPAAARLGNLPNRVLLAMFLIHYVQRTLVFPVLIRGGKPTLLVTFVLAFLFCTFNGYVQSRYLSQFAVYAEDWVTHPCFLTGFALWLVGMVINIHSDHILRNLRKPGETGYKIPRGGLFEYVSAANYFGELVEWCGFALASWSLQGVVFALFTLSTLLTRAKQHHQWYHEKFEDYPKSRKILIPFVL
The experiment in a line: [3H]4-MA binding assay, rat liver microsomes (tea catechins). Particulars: read-out: % Inhibition of [^3 H]4-MA binding. The protocol:
Microsomes were prepared as described previously (Liang and Liao, 1992) from the liver of adult Sprague-Dawley female rats or Rat-1A cells expressing a specific type of human 5α-reductase. Each study was carried out in duplicate or triplicate which were usually within 10% of each other. Several studies were preformed to assure that the results shown are representative. The data presented was based on the rate of reaction.
as §4
On the technique in general: Liver microsomes are a subcellular fraction often used to study metabolism.

In assay [8] the target is T2, human 5α-reductase isozyme type 1. Description: 4-[14C]testosterone reduction, human type 1 isozyme. In kind it is biochemical. The note with it: for inhibition at 1 µM / inhibition at 3 µM / inhibition at 10 µM / inhibition at 30 µM: read-out: % Inhibition of 5α-reduction; for activity on type 1 isozyme: enzymatic assay.
Text: as §1, §2, §3

Assay [9] concerns 5α-reductase. Particulars: cited from earlier work.
Another assay addresses Soybean lipoxygenase (Glycine max, UniProt P08170). Particulars: cited from earlier work.
The test system of assay [10] is androgen-dependent organs. In kind it is in vivo, rat. The note with it: up to 15 mg per day. The protocol:
The control rats were injected with 0.3 ml of 30% ethanol.

Sequence of Soybean lipoxygenase (P08170 whole entry): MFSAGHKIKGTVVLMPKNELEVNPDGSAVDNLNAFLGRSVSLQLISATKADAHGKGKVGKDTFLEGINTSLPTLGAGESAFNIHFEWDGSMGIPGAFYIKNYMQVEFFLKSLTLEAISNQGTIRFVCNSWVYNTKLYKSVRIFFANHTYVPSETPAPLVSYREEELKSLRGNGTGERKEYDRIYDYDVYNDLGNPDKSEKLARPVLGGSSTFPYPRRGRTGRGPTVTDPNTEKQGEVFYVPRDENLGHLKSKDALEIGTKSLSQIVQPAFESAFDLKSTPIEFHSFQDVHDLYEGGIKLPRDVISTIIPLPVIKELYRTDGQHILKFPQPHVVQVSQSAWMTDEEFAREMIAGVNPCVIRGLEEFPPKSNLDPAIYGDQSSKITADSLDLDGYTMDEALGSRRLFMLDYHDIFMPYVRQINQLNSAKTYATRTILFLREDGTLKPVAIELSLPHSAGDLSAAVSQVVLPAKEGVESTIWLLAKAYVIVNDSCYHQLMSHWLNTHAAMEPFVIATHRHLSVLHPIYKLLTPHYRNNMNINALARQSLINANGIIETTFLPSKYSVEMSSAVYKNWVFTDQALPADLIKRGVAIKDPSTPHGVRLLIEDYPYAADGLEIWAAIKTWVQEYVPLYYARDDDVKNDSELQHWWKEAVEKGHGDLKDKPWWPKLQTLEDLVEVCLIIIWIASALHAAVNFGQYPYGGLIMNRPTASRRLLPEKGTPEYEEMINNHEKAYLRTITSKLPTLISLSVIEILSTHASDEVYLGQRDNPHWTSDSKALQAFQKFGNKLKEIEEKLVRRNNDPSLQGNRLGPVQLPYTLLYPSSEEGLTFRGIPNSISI

The term inhibition denotes how much of the control response was suppressed. `Oc1cc(O)c2c(c1)O[C@H](c1ccc(O)c(O)c1)[C@H](O)C2` [EC, (-)Epicatechin]: the inhibition at 1 µM was < 10% in assay [1] (Table 10, 1 μM); < 10% in [2] (Table 9, 1 μM); < 10% in [6] (Table 9, 1 μM); < 10% in [8] (Table 10, 1 μM). Moreover, the inhibition at 3 µM in assay [1] (Table 10, 3 μM) is < 10%; in assay [2] (Table 9, 3 μM), < 10%; in assay [6] (Table 9, 3 μM), 13%; in [8] (Table 10, 3 μM), 13%. The inhibition at 10 µM in assay [1] (Table 10, 10 μM) was < 10%; in assay [2] (Table 9, 10 μM), < 10%; in assay [6] (Table 9, 10 μM) it was < 10%; in assay [7] (Table 8, 10 μM), < 10%; in [8] (Table 10, 10 μM), < 10%. Besides, the inhibition at 30 µM was < 10% in [1] (Table 10, 30 μM); < 10% in [2] (Table 9, 30 μM); < 10% in assay [6] (Table 9, 30 μM); < 10% in [8] (Table 10, 30 μM). The inhibition at 100 µM is < 10% in assay [1] (Table 10, 100 μM); < 10% in assay [2] (Table 9, 100 μM); 18% in assay [6] (Table 9, 100 μM). In assay [1], the “activity on type 2 isozyme” value was “not active”. Moreover, the “L/R sebum ratio at end of treatment” value in assay [3] (20 mg twice a day, 6 days) was 1.02±0.1. Moreover, the “L/R sebum ratio recovered after treatment stopped” value in assay [3] (10 days after stop) was found to be 1.21±0.01. In the assay on 5α-reductase [4], the inhibition result was “less than 25%”. In addition, the “effect on body weight increase” value in assay [5] is recorded as “not EC or γ-LA”. For the same compound, the “effect on ventral prostate and preputial organ weights” value in assay [5] is reported as “not EC”. For the same compound, the inhibition at 5 µM in [7] (Table 8, 5 μM) was < 10%. In assay [7] (Table 8, 20 μM), the inhibition at 20 µM is < 10%. The inhibition at 40 µM in assay [7] (Table 8, 40 μM) was < 10%. The inhibition at 200 µM in assay [7] (Table 8, 200 μM) is < 10%. Moreover, the “activity on type 1 isozyme” value in assay [8] is on record as “not active”.
`C[C@]12CC[C@H]3[C@@H](CCC4C(=[N+]=[N-])C(=O)CC[C@@]43C)[C@@H]1CC[C@@H]2CCCO` (some centres unmarked) [4-diazo-21-hydroxymethyl-pregnane-3-one]: the “5α-reductase inhibition” value in the assay on 5α-reductase [9] is “shown to inhibit 5α-reductase”.
Consider `C[C@]12CC[C@H]3[C@@H](CCC4=CC(=O)CC[C@@]43C)[C@@H]1CC[C@@H]2C(=O)O` [4-androstane-3-one-17β-carboxylic acid], for which the “5α-reductase inhibition” value with 5α-reductase [9] was “shown to inhibit 5α-reductase”.
Consider `Cc1c(O[C@@H](C)c2ccc(CC(C)C)cc2)ccc(C(=O)Nc2ccccc2OCCCC(=O)O)c1C` [ONO-3805], for which the “5α-reductase inhibition” value in the assay with 5α-reductase [9] is listed as 5α-reductase inhibitory activity.
The IC50 is the point on the concentration scale where inhibition reaches its midpoint. With `Oc1cc(O)c2c(c1)O[C@H](c1cc(O)c(O)c(O)c1)[C@H](O)C2` [EGC, (-)Epigallocatechin], in assay [1], the “activity on type 2 isozyme” value is “not active”, the inhibition at 1 µM is < 10%, the inhibition at 3 µM is < 10% and the inhibition at 10 µM is < 10%. In [1], the inhibition at 30 µM was < 10% and the inhibition at 100 µM was < 10%. In assay [2], the inhibition at 1 µM was < 10%, the inhibition at 3 µM was < 10%, the inhibition at 10 µM was < 10% and the inhibition at 30 µM was found to be 13%. Moreover, the inhibition at 100 µM in assay [2] amounted to 14%. Also, the half-maximal inhibitory concentration (IC50) at Soybean lipoxygenase is 21 µM. Besides, in assay [10], the “effect on the body weight” value was “No significant effect”. Also, in assay [6], the inhibition at 1 µM was < 10%, the inhibition at 3 µM was < 10%, the inhibition at 10 µM was < 10% and the inhibition at 30 µM is < 10%. Moreover, the inhibition at 100 µM in [6] was found to be 23%. For the same compound, in [7], the inhibition at 5 µM was < 10%, the inhibition at 10 µM is < 10%, the inhibition at 20 µM is < 10% and the inhibition at 40 µM is < 10%. In addition, in assay [7], the inhibition at 200 µM is < 10%. For the same compound, in [8], the “activity on type 1 isozyme” value was “not active”, the inhibition at 1 µM is < 10%, the inhibition at 3 µM was < 10% and the inhibition at 10 µM was < 10%. Besides, the inhibition at 30 µM in [8] is < 10%.
